Data as given in ChEMBL document CHEMBL1136636, “Carbonic anhydrase inhibitors: inhibition of the tumor-associated isozyme IX with aromatic and heterocyclic sulfonamides” (Bioorg Med Chem Lett, 2003).

Experiments:
[1] = target: T1, Carbonic anhydrase 4 (Bos taurus, UniProt Q95323)
T1 sequence (Q95323 whole entry): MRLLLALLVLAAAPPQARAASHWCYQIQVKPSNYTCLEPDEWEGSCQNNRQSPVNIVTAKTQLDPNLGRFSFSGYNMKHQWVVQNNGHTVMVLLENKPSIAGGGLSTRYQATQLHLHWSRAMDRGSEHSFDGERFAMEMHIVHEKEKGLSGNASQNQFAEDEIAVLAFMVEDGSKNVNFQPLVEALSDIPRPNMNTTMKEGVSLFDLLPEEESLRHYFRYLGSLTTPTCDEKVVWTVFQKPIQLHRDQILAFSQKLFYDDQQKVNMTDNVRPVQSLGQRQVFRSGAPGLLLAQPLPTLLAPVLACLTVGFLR

[2] = target: Carbonic anhydrase 9 (Homo sapiens, UniProt Q16790)
[3] = target: Carbonic anhydrase 1 (Homo sapiens, UniProt P00915)
Chain of Carbonic anhydrase 1 (P00915 whole entry): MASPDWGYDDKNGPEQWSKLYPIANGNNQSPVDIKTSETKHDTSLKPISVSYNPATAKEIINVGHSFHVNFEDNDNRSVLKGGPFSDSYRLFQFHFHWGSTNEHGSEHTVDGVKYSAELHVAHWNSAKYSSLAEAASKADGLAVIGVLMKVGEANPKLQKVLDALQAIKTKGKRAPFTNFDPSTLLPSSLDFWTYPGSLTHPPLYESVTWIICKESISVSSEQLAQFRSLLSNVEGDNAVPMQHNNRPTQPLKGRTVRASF

A Ki [1] of 72 nM was found for Nc1ccc(S(=O)(=O)NCc2ccc(S(N)(=O)=O)cc2)cc1 in this work.

A Ki [2] of 285 nM was found for Nc1ccc(S(N)(=O)=O)cc1I in this work.

A Ki [1] of 415 nM and a Ki [2] of 32 nM were found for NS(=O)(=O)c1cccc2cccnc12 in this work.

A Ki [1] of 129 nM and a Ki [2] of 34 nM were found for Nc1ccc(S(=O)(=O)Nc2ccc(S(N)(=O)=O)cc2)cc1 in this work.

A Ki [2] of 16 nM was found for Nc1nccc(Nc2ccc(S(N)(=O)=O)cc2)n1 in this work.

A Ki [1] of 438 nM, a Ki [2] of 30 nM and a Ki [3] of 23000 nM were found for NS(=O)(=O)c1cccc2ccccc12 in this work.

A Ki [2] of 33 nM was found for Nc1ccccc1S(N)(=O)=O in this work.

A Ki [2] of 30 nM was found for Cn1nc(S(N)(=O)=O)sc1=N in this work.

A Ki [2] of 22 nM was found for NS(=O)(=O)c1ccc(CCO)cc1 in this work.

A Ki [2] of 245 nM was found for Nc1ccc(S(N)(=O)=O)cc1F in this work.

A Ki [2] of 21 nM was found for NS(=O)(=O)c1ccc(CO)cc1 in this work.

A Ki [1] of 144 nM and a Ki [3] of 185 nM were found for Nc1ccc(S(=O)(=O)Nc2ccccc2S(N)(=O)=O)cc1 in this work.

A Ki [2] of 264 nM was found for Nc1ccc(S(N)(=O)=O)cc1Cl in this work.

A Ki [1] of 72 nM and a Ki [2] of 24 nM were found for Nc1ccc(S(=O)(=O)NCCc2ccc(S(N)(=O)=O)cc2)cc1 in this work.

A Ki [1] of 154 nM was found for Nc1cc(C(F)(F)F)c(S(N)(=O)=O)cc1S(N)(=O)=O [2,4-DISULFAMYLTRIFLUOROMETHYLANILINE] in this work.

A Ki [1] of 86 nM and a Ki [2] of 26 nM were found for NS(=O)(=O)c1ccc(C(=O)O)cc1 [CARZENIDE] in this work.
